The source made the active and inactive calls. The calls are words filed in the database; no cut-off is given here.
Experiments:
[1] = tested on: Lewis lung carcinoma cell line; assay: In vivo antitumor activity against mouse LLC at 1.25 mg/kg; type: functional
9KB = assay: Cytotoxicity against human 9KB cells; type: functional, cell-based
P388 [2] = assay: In vivo antitumor activity against mouse P388 cells at 10 mg/kg; type: functional
CA-755 = assay: In vivo antitumor activity against mouse CA-755 cells at 100 mg/kg; type: functional
P388 [3] = assay: In vivo antitumor activity against mouse P388 cells at 400 mg/kg; type: functional
CCRF S-180 = assay: Cytotoxicity against mouse S180 cells; type: functional, cell-based
L1210 = assay: Cytotoxicity against mouse L1210 cells; type: functional, cell-based

SMILES	T/C [1] [%]	Activity (9KB)	T/C (P388 [2]) [%]	T/C (CA-755) [%]	T/C (P388 [3]) [%]	Activity (CCRF S-180)	Activity (L1210)
COc1cc2oc(=O)ccc2cc1C1OC(=O)[C@]2(C)O[C@H]12 (some centres undefined)	228	inactive	149				
COc1cc2oc(=O)ccc2cc1C1C=C(C)C(=O)O1 (centres undefined)		inactive					
COc1cc2ccc(=O)oc2cc1O [SCOPOLETIN]		inactive		48	130	inactive	inactive
